The record followed here is publication PMC6017654, “Ionic Liquid-Promoted Synthesis of Novel Chromone-Pyrimidine Coupled Derivatives, Antimicrobial Analysis, Enzyme Assay, Docking Study and Toxicity Study” (Molecules : A Journal of Synthetic Chemistry and Natural …, 2018).

SMILES strings stand for the structures. In brackets after ≈: the same amount, converted by molar mass.

Holding throughout (test): In vitro antifungal activity (MIC100, CLSI/NCCLS)
What all share (type): cell-based

The subject of test [1] is Aspergillus fumigates. As to conditions: A. fum., average of three readings, read-out: MIC 100. On the procedure: (§1) The newly synthesized derivatives 4(a–f) and 6(a–f) were screened for their in vitro antifungal activity against different yeast and filamentous fungal pathogens. Minimum inhibitory concentration (MIC100) values for in vitro antifungal activity were determined by the methods recommended by National Committee for Clinical Laboratory Standards (NCCLS). Miconazole was used as standard drug. Dimethyl sulfoxide (DMSO) was used as solvent control.
(§2) In vitro antifungal activity was determined as per CLSI (formerly, NCCLS) guidelines. […] The medium yeast nitrogen base was dissolved in phosphate buffer pH 7 and it was autoclaved at 110 °C for 10 min. With each set a growth control without the antifungal agent and solvent control DMSO were included. The fungal strains were freshly sub cultured on to Sabouraud dextrose agar (SDA) and incubated at 25 °C for 72 h. The fungal cells were suspended in sterile distilled water and diluted to get 10^5 cells/mL. Further, ten microlitres of the standardized suspension was inoculated onto the control plates and the media incorporated with the antifungal agents. The inoculated plates were incubated at 25 °C for 48 h. The readings were taken at the end of 48 h and 72 h. The MIC was the lowest concentration of drug preventing growth of macroscopically visible colonies on drug containing plates when there was visible growth on the drug free control plates.

Test [2] concerns Fusarium oxysporum. The following applies: F. oxy., average of three readings, read-out: MIC 100. As to the method: as §1, §2
Test [3] relates to Cryptococcus neoformans. As to conditions: C. neo., average of three readings, read-out: MIC 100. As to the method: as §1, §2
Test [4] has as its system A. flavus. As to conditions: Aspergillus flavus; A. fla.; average of three readings; read-out: MIC 100. As to the method: as §1, §2
Test [5] concerns Candida albicans. The following applies: C. alb., average of three readings, read-out: MIC 100. As to the method: as §1, §2
The test system of test [6] is Candida glabrata. As to conditions: Nakaseomyces glabratus; C. glab.; average of three readings; read-out: MIC 100. On the procedure:
as §1, §2

In test [7] the test system is Aspergillus niger. The following applies: A. nig., average of three readings, read-out: MIC 100. On the procedure: as §1, §2

Turning to `COc1ccc2occ(C3NC(=S)NC(C)=C3C(=O)NN)c(=O)c2c1` (stereo not shown) [Compound 6f, 4-(6-Methoxy-4-oxo-4H-chromen-3-yl)-6-methyl-2-thioxo-1,2,3,4-tetrahydropyrimidine-5-carbohydrazide], the MIC in test [1] was found to be 33 µg/mL (≈ 91.6 µM); in test [2], 28 µg/mL (≈ 77.7 µM); in test [3], 15 µg/mL (≈ 41.6 µM); in test [4] it was 15 µg/mL (≈ 41.6 µM); in test [5], 24 µg/mL (≈ 66.6 µM); in test [6], 25 µg/mL (≈ 69.4 µM). The MIC in test [7] came to 16 µg/mL (≈ 44.4 µM).
